Data on eight compounds can be found in BindingDB's records for doi:10.1021/jm00010a019 (Boehringer Ingelheim Pharmaceuticals, 1995).

As usually defined, the koff is the first-order rate constant of dissociation. A low value points to slow dissociation.

In this assay the target is T1, Renin (Homo sapiens, UniProt P00797).
T1 sequence (P00797 whole entry): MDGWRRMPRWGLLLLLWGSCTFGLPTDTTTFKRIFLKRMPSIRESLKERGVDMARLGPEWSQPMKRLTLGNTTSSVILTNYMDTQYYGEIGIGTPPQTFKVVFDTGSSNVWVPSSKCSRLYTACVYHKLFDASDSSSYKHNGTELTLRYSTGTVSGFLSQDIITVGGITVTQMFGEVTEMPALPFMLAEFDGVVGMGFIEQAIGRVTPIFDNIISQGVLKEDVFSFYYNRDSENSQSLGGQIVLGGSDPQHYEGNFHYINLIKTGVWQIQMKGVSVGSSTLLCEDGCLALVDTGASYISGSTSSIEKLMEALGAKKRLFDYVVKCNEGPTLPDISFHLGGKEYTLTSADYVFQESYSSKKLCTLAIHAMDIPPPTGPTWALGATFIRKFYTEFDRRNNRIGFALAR
Nature of the assay: Component acylation rate constant by the compound against Renin was determined.
With `CC(C)C[C@H](O)[C@H](O)[C@H](CC1CCCCC1)NC(=O)[C@@H](CC(=O)N(CC(=O)N(C)CCc1ccccn1)CC1CCCCC1)Cc1csc(N)n1` [2-(2-Amino-thiazol-4-ylmethyl)-N*4*-cyclohexylmethyl-N*1*-(1-cyclohexylmethyl-2,3-dihydroxy-5-methyl-hexyl)-N*4*-{[methyl-(2-pyridin-2-yl-ethyl)-carbamoyl]-methyl}-succinamide(BILA 2157 BS)], the koff was determined as 0.00028 s⁻¹.

`COC1(CN(CC(=O)N(C)CCc2ccccn2)C(=O)C[C@@H](Cc2csc(N)n2)C(=O)N[C@@H](CC2CCCCC2)[C@@H](O)[C@@H](O)CC(C)C)CCCCC1` [(R)-2-(2-Amino-thiazol-4-ylmethyl)-N*1*-((1S,2R,3S)-1-cyclohexylmethyl-2,3-dihydroxy-5-methyl-hexyl)-N*4*-(1-methoxy-cyclohexylmethyl)-N*4*-{[methyl-(2-pyridin-2-yl-ethyl)-carbamoyl]-methyl}-succinamide]: the koff stood at 0.00175 s⁻¹.

For the compound `CC(C)C[C@H](O)[C@H](O)[C@H](CC1CCCCC1)NC(=O)[C@@H](CC(=O)N(CC(=O)N(C)CCc1ccccn1)CC1(C)CCCCC1)Cc1csc(N)n1` [(R)-2-(2-Amino-thiazol-4-ylmethyl)-N*1*-((1S,2R,3S)-1-cyclohexylmethyl-2,3-dihydroxy-5-methyl-hexyl)-N*4*-(1-methyl-cyclohexylmethyl)-N*4*-{[methyl-(2-pyridin-2-yl-ethyl)-carbamoyl]-methyl}-succinamide], the koff was found to be 0.000569 s⁻¹.

For `CC(C)C[C@H](O)[C@H](O)[C@H](CC1CCCCC1)NC(=O)[C@@H](CC(=O)N(CC(=O)N(C)CCN(C)C(=O)N1CCOCC1)[C@@H](C)c1ccccc1)Cc1csc(N)n1` [(R)-2-(2-Amino-thiazol-4-ylmethyl)-N*1*-((1S,2R,3S)-1-cyclohexylmethyl-2,3-dihydroxy-5-methyl-hexyl)-N*4*-[(methyl-{2-[methyl-(morpholine-4-carbonyl)-amino]-ethyl}-carbamoyl)-methyl]-N*4*-((S)-1-phenyl-ethyl)-succinamide], the koff is 0.00133 s⁻¹.

For the compound `CC(C)C[C@H](O)[C@H](O)[C@H](CC1CCCCC1)NC(=O)[C@@H](CC(=O)N(CC(=O)N(C)CCN1CCOCC1)[C@@H](C)c1ccccc1)Cc1csc(N)n1` [(R)-2-(2-Amino-thiazol-4-ylmethyl)-N*1*-((1S,2R,3S)-1-cyclohexylmethyl-2,3-dihydroxy-5-methyl-hexyl)-N*4*-{[methyl-(2-morpholin-4-yl-ethyl)-carbamoyl]-methyl}-N*4*-((S)-1-phenyl-ethyl)-succinamide], the koff is 0.00481 s⁻¹.

As for `CC(C)C[C@H](O)[C@H](O)[C@H](CC1CCCCC1)NC(=O)[C@@H](CC(=O)N(CC(=O)N(C)CCc1ccccn1)[C@@H](C)c1ccccc1)Cc1csc(N)n1` [(R)-2-(2-Amino-thiazol-4-ylmethyl)-N*1*-((1S,2R,3S)-1-cyclohexylmethyl-2,3-dihydroxy-5-methyl-hexyl)-N*4*-{[methyl-(2-pyridin-2-yl-ethyl)-carbamoyl]-methyl}-N*4*-((S)-1-phenyl-ethyl)-succinamide], the koff was determined as 0.00135 s⁻¹.

Regarding `CC(C)C[C@H](O)[C@H](O)[C@H](CC1CCCCC1)NC(=O)[C@@H](CC(=O)N(CC(=O)N(C)CCC(=O)N1CCOCC1)[C@@H](C)c1ccccc1)Cc1csc(N)n1` [(R)-2-(2-Amino-thiazol-4-ylmethyl)-N*1*-((1S,2R,3S)-1-cyclohexylmethyl-2,3-dihydroxy-5-methyl-hexyl)-N*4*-{[methyl-(3-morpholin-4-yl-3-oxo-propyl)-carbamoyl]-methyl}-N*4*-((S)-1-phenyl-ethyl)-succinamide], the koff worked out at 0.0013 s⁻¹.

For the compound `CC(C)C[C@H](O)[C@H](O)[C@H](CC1CCCCC1)NC(=O)[C@@H](CC(=O)N(CC(=O)N(C)CCc1ccccn1)CC1CCCCCC1)Cc1csc(N)n1` [(R)-2-(2-Amino-thiazol-4-ylmethyl)-N*4*-cycloheptylmethyl-N*1*-((1S,2R,3S)-1-cyclohexylmethyl-2,3-dihydroxy-5-methyl-hexyl)-N*4*-{[methyl-(2-pyridin-2-yl-ethyl)-carbamoyl]-methyl}-succinamide], the koff turned out to be 0.000234 s⁻¹.
